Reference: patent publication US11225470B2, “Tetrazolinone compounds and its use as pest control agents” (SUMITOMO CHEMICAL COMPANY, LIMITED, priority 2016, dated 2022)

Assays:
Assay type in all cases: in vivo
[1] = system: soybean frogeye leaf spot disease fungi (Cercospora sojina); assay: soybean frogeye leaf spot test, spraying before inoculation; settings: 3.1 ppm foliar spray, inoculation after 2 days; soybean cv Tachinagaha
[2] = system: kidney bean sclerotinia rot fungi (Sclerotinia sclerotiorum); assay: kidney bean sclerotinia rot test, plants placed outside for 6 days before inoculation; settings: 200 ppm foliar spray, observed after six days
Description: Each of plastic pots was filled with soil and kidney bean (cultivar: NAGAUZURA SAITO) was sown and grown in a greenhouse for 8 days. Then, the comparative test compound cf5, the present compound E-1, E-3, E-11, or E-16, each of which was made to a formulation according to the similar method to that of Formulation Example 6, was mixed with water so as to be 200 ppm. The mixtures were sprayed to foliar parts so as to adhere adequately on the leaves of the above-mentioned kidney bean. After spraying the mixtures, the kidney beans were air-dried, and placed outside for 6 days. Thereafter, a PDA medium containing hyphae of kidney bean sclerotinia rot fungi (Sclerotinia sclerotiorum) was placed on the leaves of the kidney bean. After the inoculation, all kidney beans were placed indoors under a high humidity during only night and after six days, a lesion area was observed.

[3] = system: wheat leaf blotch fungi (Septoria tritici); assay: wheat leaf blotch test on 45-day wheat, plants placed outside for 4 days before inoculation; settings: 300 ppm, 200 L/ha, Formulation Example 4, wheat cv APOGEE grown 45 days
Description: Each of plastic pots was filled with soil and wheat (cultivar: APOGEE) was sown, and the […] grown in a greenhouse for 45 days. Then, the comparative test compound cf3, the present compound E-15, or E-16, each of which was made to a formulation according to the similar method to that of Formulation Example 4, was mixed with water so as to be 300 ppm. The mixtures were sprayed to foliar parts of the wheat by the volume of 200 L/ha. After spraying the mixtures, the […], and placed outside for 4 days. Thereafter, an aqueous suspension of the spores of wheat leaf blotch fungi (Septoria tritici) was spraying-inoculated.

[4] = system: soybean frogeye leaf spot disease fungi (Cercospora sojina); assay: soybean frogeye leaf spot test, spraying after inoculation; settings: 200 ppm foliar spray 5 days after inoculation; soybean cv TACHINAGAHA
[5] = system: kidney bean sclerotinia rot fungi (Sclerotinia sclerotiorum); assay: kidney bean sclerotinia rot test; settings: 200 ppm foliar spray; kidney bean cv NAGAUZURA SAITO; observed after four days
Procedure: Each of plastic pots was filled with soil and thereto Kidney bean (cv; NAGAUZURA SAITO) seeds were sown and the kidney beans were grown in a greenhouse for 8 days. Thereafter, any of the present compounds 1-1, 1-2, 1-3, 1-5, 1-10, 3-16, 3-22, 4-2, 4-3, 4-4, 4-8, or 6-2, each of which was made to a formulation according to the similar method to that of Formulation Example 6, was mixed with water so as to be a prescribed concentration (500 ppm). The adjusted solutions were sprayed to foliar parts so as to adhere adequately on the leaves of the above-mentioned kidney bean. After spraying the mixtures, the kidney beans were air-dried and a PDA medium containing hyphae of kidney bean sclerotinia rot fungi (Sclerotinia sclerotiorum) was placed on the leaves of the kidney bean. After the inoculation, all kidney beans were placed under a high humidity during only night and after four days, a lesion area was observed.
Each of plastic pots was filled with soil and thereto Kidney bean (cv; NAGAUZURA SAITO) seeds were sown and the kidney beans were grown in a greenhouse for 8 days. […] The adjusted solutions were sprayed to foliar parts so as to adhere adequately on the leaves of the above-mentioned kidney bean. […]

[6] = system: tomato late blight fungi (Phytophthora infestans); settings: 500 ppm foliar spray, inoculation after 1 day; tomato cv PATIO
[7] = system: cabbage moth (Plutella xylostella); assay: cabbage moth mortality test on cabbage seedling; settings: 120 h, 500 ppm spray on cabbage seedling, five second instar larvae, counted after 5 days, read-out: Morality (%)
Description: Any of the present compounds 1-4, 1-5, 1-6, 3-9, 3-13, 3-17, 3-23, 3-25, 3-26, 3-29, 3-31, 4-1 or 5-3, each of which was made to a formulation according to the similar method to that of Formulation Example 6, was mixed with water so as to be 500 ppm. The mixtures were sprayed to foliar parts of the cabbage seedling (on the developmental stage of the second to third true leaf) that was planted in a container so as to adhere adequately on the leaves of the above-mentioned cabbage. After the spraying, the stem and leaf of the seedling was cut out and then was installed into the container that was covered with the filter paper. Five heads of cabbage moth (Plutella xylostella) at the second instar larval stages were released into the cup. After 5 days, the surviving insects were counted, and the mortality of insects was calculated by the following equation. Morality (%)={1−the number of the surviving insects/5}×100

[8] = system: cotton aphid (Aphis gossypii); assay: cotton aphid test on cucumber seedling; settings: 144 h, 500 ppm spray on infested cucumber seedling, counted after 6 days, read-out: Controlling value (%)

CCC(=NN=C(C)c1ccccc1)OCc1c(C)cccc1-n1nnn(C)c1=O [cf5]
area of lesion compared to that on an untreated bean [1]: more than 70% | lesion area compared to the lesion area in an untreated kidney bean [2]: ≥ 70%

CCC(=NN=C(C)c1ccc(F)cc1)OCc1c(C)cccc1-n1nnn(C)c1=O [cf3]
lesion area compared to the lesion area in an untreated wheat [3]: ≥ 80%

CCC(=NN=C(C)c1ccc2ccccc2c1)OCc1c(C)cccc1-n1nnn(C)c1=O [cf1]
lesion area compared to the lesion area in an untreated soybean [4]: ≥ 50% | lesion area compared to the lesion area in an untreated kidney bean [5]: ≥ 50%

CCC(=NN=C1CCc2c(OC)cccc21)OCc1c(C)cccc1-n1nnn(C)c1=O [E-6]
lesion area compared to the lesion area in an untreated tomato [6]: ≤ 30% | pest or weed control at 500 ppm [7]: ≥ 80% | pest or weed control at 500 ppm [8]: ≥ 60%
